Assay results: US20110015120A1, “Pharmaceutical and cosmetic compositions including lactoferrin, ciclopirox, etidronic acid” (VALETUDO S . r . l ., priority 2009, published 2011)
Several values for one entry are separate records, joined by “and”; a condition that tells them apart may be missing. Equal values may be shown once. Entries after “also recorded” stand apart in the source; their conditions may differ.

Test system: MALASSEZIA GLOBOSA
Assay: Inhibition of Malassezia globosa growth, colony count (UFC/ml) on Dixon's Agar
Format: cell-based
Details: for dil 10X colony count: 200 μl of suspension diluted 10X on Petri dish; for dil 10X colony count / X50 (calculation made based on the dilution): three replicates; for AVERAGE: average of three replicates; for % reduction of Malassezia globosa cells growth (% increase of antimycotic activity): compared to CICLOPIROXOLAMINE alone; for X50 (calculation made based on the dilution): dil 10X count x50
Description: To assess the capacity of the LACTOFERRIN to enhance the antimycotic action of the CIPROPIROXOLAMIN, a suspension of a MALASSEZIA GLOBOSA STRAIN is inoculated on a specific culture medium and the capacity of the compounds to inhibit the mycotic growth is observed, by counting of the UFC/ml.
As first approach, the two compounds are tested at the concentration of 1:500 and, subsequently, diluted in culture medium at 2 decreasing concentrations (10× and 100×) in order to visualize the individual activities. Then in order to evaluate the capacity of the LACTOFERRIN to increase the antimycotic effect of the CICLOPIROXOLAMIN, the same test was carried out on the mix of the two active ingredients at different ratios (1:2 and 1:5).
Each test was performed three times and the incubation times were 1 and 4 hours respectively.
Based on the results obtained, the best dilution for the execution of the tests was the 10× dilution and both the incubation times (1 hour and 4 hours) were taken into consideration since the experimental conditions permitted an accurate count to be carried out of the colonies on the Petri dishes.
The microorganism used is MALASSEZIA GLOBOSA.
The microorganisms were cultured in specific culture medium (Dixon's Agar) until reaching a concentration of approximately […] per ml. Aliquots of 1 ml of this inoculum were then taken to which were added respectively: • Ciclopiroxolamine 1:500 • Lactoferrin 1:500 • Mixture 1:2 Ciclopiroxolamine:lactoferrin • Mixture 1:5 Ciclopiroxolamine:lactoferrin
As positive control, the untreated inoculum was used (MALASSEZIA and diluting liquid), as negative controls the two active ingredients in diluting liquid.
After incubations of 1 hour and 4 hours respectively, aliquots of 200 μl of each suspension were spread on Petri dishes.
For each treatment, the test was carried out three times and for 3 different dilutions (non diluted suspension (TQ), dilution 10× and dilution 100×).
The 54 dishes obtained were then examined, after incubation of 5-6 days and the microbial load of each specimen was calculated (UFC/ml).
The % increase of the antimycotic property corresponds to the % reduction of the growth of Malassezia Globosa

Cc1cc(C2CCCCC2)n(O)c(=O)c1 [CICLOPIROXOLAMINE, Ciclopirox Olamine]
reduction in the growth of Malassezia Globosa (in words) (after four hours of incubation): marked reduction | reduction in the growth of Malassezia Globosa (in words) (after one hour of incubation): marked reduction | antimycotic activity towards Malassezia Globosa (in words) (overall statement): decidedly more effective in reducing the growth compared to the LACTOFERRIN; also recorded: marked antimycotic activity | Log (AVERAGE) (period of incubation 1 hour): 3.985 | dil 10X colony count (period of incubation 1 hour): 208 and 170 and 202 | AVERAGE (period of incubation 1 hour): 9666.667 UFC/ml | % reduction of Malassezia globosa cells growth (% increase of antimycotic activity) (period of incubation 1 hour): 0% | X50 (calculation made based on the dilution) (period of incubation 1 hour): 10400 UFC/ml and 8500 UFC/ml and 10100 UFC/ml | Log (AVERAGE) (period of incubation 4 hour): 3.209 | dil 10X colony count (period of incubation 4 hour): 38 and 34 and 25 | AVERAGE (period of incubation 4 hour): 1616.667 UFC/ml | % reduction of Malassezia globosa cells growth (% increase of antimycotic activity) (period of incubation 4 hour): 0% | X50 (calculation made based on the dilution) (period of incubation 4 hour): 1900 UFC/ml and 1700 UFC/ml and 1250 UFC/ml
